Experimental data taken from paper PMC8010095, “Discovery of novel antituberculosis agents among 3-phenyl-5-(1-phenyl-1H-[1,2,3]triazol-4-yl)-[1,2,4]oxadiazole derivatives targeting aminoacyl-tRNA synthetases” (Scientific Reports, 2021).

Experiments:
[1] = system: Mycobacterium abscessus (ATCC 19,977); assay: microbe, parasite or virus in culture; format: cell-based; conditions: > 80% reduction in growth; screened at 20, 2 and 0.2 mg/L; 7H9 complete medium
[2] = system: Mycobacterium avium (ATCC 700,891 MAC 101); assay: microbe, parasite or virus in culture; format: cell-based; conditions: > 80% reduction in growth; screened at 20, 2 and 0.2 mg/L; 7H9 complete medium
[3] = molecular target: T1, M. tuberculosis methionyl-tRNA synthetase (MetRS) (Mycobacterium tuberculosis, UniProt P9WFU5); assay: biochemical; format: biochemical; conditions: recombinant enzyme; mean ± spread (n in brackets); negative = activation
T1 construct: made in house; host or cells: Escherichia coli
T1 sequence (P9WFU5 whole entry): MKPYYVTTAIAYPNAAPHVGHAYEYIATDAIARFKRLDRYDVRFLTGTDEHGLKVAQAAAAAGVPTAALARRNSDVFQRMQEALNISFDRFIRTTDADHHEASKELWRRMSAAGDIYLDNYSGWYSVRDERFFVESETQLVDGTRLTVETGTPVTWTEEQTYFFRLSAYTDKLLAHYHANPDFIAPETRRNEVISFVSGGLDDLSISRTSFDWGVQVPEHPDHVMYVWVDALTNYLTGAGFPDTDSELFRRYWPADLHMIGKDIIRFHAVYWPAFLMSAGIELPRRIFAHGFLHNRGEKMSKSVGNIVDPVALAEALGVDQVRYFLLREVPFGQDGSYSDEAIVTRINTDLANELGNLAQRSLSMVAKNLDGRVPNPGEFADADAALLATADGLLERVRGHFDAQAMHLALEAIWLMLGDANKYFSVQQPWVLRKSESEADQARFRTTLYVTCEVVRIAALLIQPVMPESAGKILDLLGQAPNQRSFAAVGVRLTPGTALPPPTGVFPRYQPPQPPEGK

M. tuberculosis H37Rv = assay: microbe, parasite or virus in culture; format: cell-based; conditions: > 80% reduction in growth; screened at 20, 2 and 0.2 mg/L; 7H9 complete medium
[4] = molecular target: T2, M. tuberculosis leucyl-tRNA synthetase (LeuRS) (Mycobacterium tuberculosis, UniProt P9WFV1); assay: biochemical; format: biochemical; conditions: recombinant enzyme; mean ± spread (n in brackets); negative = activation
T2 construct: made in house; host or cells: Escherichia coli
T2 sequence (P9WFV1 whole entry): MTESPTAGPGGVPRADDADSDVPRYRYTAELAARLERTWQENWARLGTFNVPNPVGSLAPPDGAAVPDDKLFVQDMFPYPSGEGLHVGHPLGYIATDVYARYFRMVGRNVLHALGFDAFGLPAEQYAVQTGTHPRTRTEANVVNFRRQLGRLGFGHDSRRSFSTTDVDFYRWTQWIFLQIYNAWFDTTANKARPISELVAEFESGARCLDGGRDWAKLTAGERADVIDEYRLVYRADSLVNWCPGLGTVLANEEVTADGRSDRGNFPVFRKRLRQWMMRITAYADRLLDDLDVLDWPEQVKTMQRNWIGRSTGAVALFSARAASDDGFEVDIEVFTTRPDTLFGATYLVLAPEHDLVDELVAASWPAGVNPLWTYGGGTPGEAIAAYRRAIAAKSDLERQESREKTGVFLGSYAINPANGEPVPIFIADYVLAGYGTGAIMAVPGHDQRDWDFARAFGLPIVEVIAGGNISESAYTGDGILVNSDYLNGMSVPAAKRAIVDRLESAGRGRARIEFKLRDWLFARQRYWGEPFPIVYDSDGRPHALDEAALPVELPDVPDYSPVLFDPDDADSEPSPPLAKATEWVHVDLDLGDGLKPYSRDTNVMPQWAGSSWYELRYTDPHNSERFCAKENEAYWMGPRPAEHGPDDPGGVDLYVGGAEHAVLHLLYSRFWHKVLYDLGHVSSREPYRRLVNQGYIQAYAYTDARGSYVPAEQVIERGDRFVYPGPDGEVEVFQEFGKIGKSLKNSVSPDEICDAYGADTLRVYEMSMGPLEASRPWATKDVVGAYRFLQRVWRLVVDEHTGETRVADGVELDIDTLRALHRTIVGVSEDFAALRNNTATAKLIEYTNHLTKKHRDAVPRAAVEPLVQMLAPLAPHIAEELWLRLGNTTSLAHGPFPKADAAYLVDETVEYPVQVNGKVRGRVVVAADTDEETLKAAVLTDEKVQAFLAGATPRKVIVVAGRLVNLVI

Row | Structure (SMILES) | Growth inhibition cutoff, M. abscessus 19,977 [1] [mg/L] | Growth inhibition cutoff, M. avium 700,891 (MAC 101) [2] [mg/L] | MetRS inhibition activity, % [3] | Growth inhibition cutoff, H37Rv (M. tuberculosis H37Rv) [mg/L] | LeuRS inhibition activity, % [4]
1 | Nc1c(-c2nc(-c3ccc(F)cc3)no2)nnn1-c1cccc(C(F)(F)F)c1 [Compound 19] | > 20 | > 20 | 53 ± 0.7 (2) % | > 20 | –
2 | COc1ccccc1-n1nnc(-c2nc(-c3ccc(F)cc3)no2)c1N [Compound 26] | > 20 | > 20 | – | > 20 | –
3 | COc1cccc(-n2nnc(-c3nc(-c4ccc(F)cc4)no3)c2N)c1 [Compound 20] | > 20 | > 20 | 37 ± 17 (3) % | > 20 | 29 ± 25 (2) %
4 | Nc1c(-c2nc(-c3ccc(F)cc3)no2)nnn1-c1ccccc1 [Compound 9] | > 20 | > 20 | 30 ± 2 (2) % | > 20 | 1 ± 8 (2) %
5 | COc1ccc(-c2noc(-c3nnn(-c4cc(Cl)ccc4OC)c3N)n2)cc1 [Compound 37] | > 20 | > 20 | – | > 20 | –
6 | Nc1c(-c2nc(-c3ccc(F)cc3)no2)nnn1-c1ccc(F)cc1 [Compound 12] | > 20 | > 20 | 52 ± 6 (2) % | > 20 | 3 ± 7 (2) %
7 | CCOc1ccccc1-n1nnc(-c2nc(-c3ccc(Br)cc3)no2)c1N [Compound 36] | > 20 | > 20 | 25 ± 5 (2) % | > 20 | –
8 | Cc1c(-c2nc(-c3ccccc3F)no2)nnn1-c1ccc(Br)cc1 [Compound 5] | > 20 | > 20 | – | > 20 | 17 ± 10 (2) %
9 | Nc1c(-c2nc(-c3ccc(F)cc3)no2)nnn1-c1ccccc1F [Compound 23] | > 20 | > 20 | 7 ± 13 (2) % | > 20 | 5 ± 7 (2) %
10 | Cc1c(-c2nc(-c3ccccc3F)no2)nnn1-c1cc(F)ccc1F [Compound 6] | > 20 | > 20 | – | > 20 | –
11 | Nc1c(-c2nc(-c3ccc(Cl)cc3)no2)nnn1-c1ccc(Br)cc1F [Compound 31] | > 20 | > 20 | 70 ± 19 (2) % | > 20 | 15 ± 11 (2) %
12 | Nc1c(-c2nc(-c3ccc(F)cc3)no2)nnn1-c1ccc(Cl)cc1 [Compound 10] | > 20 | > 20 | 23 ± 25 (3) % | > 20 | –
13 | Cc1c(-c2nc(-c3ccccc3Cl)no2)nnn1-c1cccc(F)c1 [Compound 7] | > 20 | > 20 | – | > 20 | 71 ± 5 (2) %
14 | Nc1c(-c2nc(-c3ccc(F)cc3)no2)nnn1-c1cccc(Cl)c1 [Compound 16] | > 20 | > 20 | 47 ± 19 (2) % | > 20 | –
15 | Nc1c(-c2nc(-c3ccc(Br)cc3)no2)nnn1-c1cccc(F)c1 [Compound 33] | > 20 | > 20 | 55 ± 4 (2) % | > 20 | –
16 | CCOc1ccc(-c2noc(-c3nnn(-c4ccccc4F)c3N)n2)cc1 [Compound 39] | > 20 | > 20 | 35 ± 6 (2) % | > 20 | –
17 | Nc1c(-c2nc(-c3ccccc3)no2)nnn1-c1ccccc1F [Compound 1] | > 20 | > 20 | – | > 20 | –
18 | Nc1c(-c2nc(-c3ccc(F)cc3)no2)nnn1-c1ccc(Br)cc1 [Compound 11] | > 20 | > 20 | – | > 20 | –
19 | Nc1c(-c2nc(-c3ccc(F)cc3)no2)nnn1-c1ccc(F)cc1F [Compound 22] | > 20 | > 20 | 59 ± 9 (2) % | > 20 | –
20 | COc1ccccc1-n1nnc(-c2nc(-c3ccc(Br)cc3)no2)c1N [Compound 35] | > 20 | > 20 | 61 ± 47 (3) % | > 20 | –
21 | COc1ccc(C)cc1-n1nnc(-c2nc(-c3ccc(F)cc3)no2)c1N [Compound 28] | > 20 | > 20 | 37 ± 3 (2) % | > 20 | –
22 | COc1ccc(OC)c(-n2nnc(-c3nc(-c4ccc(F)cc4)no3)c2N)c1 [Compound 29] | > 20 | > 20 | 14 ± 14 (2) % | > 20 | –
23 | CCOc1ccccc1-n1nnc(-c2nc(-c3ccc(F)cc3)no2)c1N [Compound 30] | > 20 | > 20 | 19 ± 0.9 (2) % | > 20 | –
24 | Cc1ccccc1-c1noc(-c2nnn(-c3ccc(Br)cc3)c2C)n1 [Compound 8] | > 20 | > 20 | – | > 20 | 18 ± 4 (2) %
25 | COc1ccc(-n2nnc(-c3nc(-c4ccc(F)cc4)no3)c2N)cc1OC [Compound 21] | > 20 | > 20 | – | > 20 | –
26 | COc1ccc(-c2noc(-c3nnn(-c4ccc(Cl)cc4)c3C)n2)cc1OC [Compound 38] | > 20 | > 20 | 25 ± 18 (2) % | > 20 | –
27 | Nc1c(-c2nc(-c3ccc(F)cc3)no2)nnn1-c1cccc(F)c1 [Compound 15] | > 20 | > 20 | – | > 20 | –
28 | Cc1c(-c2nc(-c3ccccc3F)no2)nnn1-c1ccc(F)c(Cl)c1 [Compound 4] | > 20 | > 20 | – | > 20 | 11 ± 8 (3) %
29 | CCOc1ccc(-c2noc(-c3nnn(-c4ccc(F)c(Cl)c4)c3N)n2)cc1 [Compound 41] | > 20 | > 20 | 59 ± 22 (2) % | > 20 | –
30 | Nc1c(-c2nc(-c3ccc(Br)cc3)no2)nnn1-c1ccc(F)cc1 [Compound 32] | > 20 | > 20 | 46 ± 32 (2) % | > 20 | –
